Each structure is given as a SMILES string.

Data set [1] deals with K562, HL-60, MOLT-4, HEp-2, NCI-H292, HT-29 and MCF-7 tumor cell lines. Put plainly: Cytotoxic screening against the panel of tumor cell lines (MTT). It is filed as cell-based, human. The settings on record: Homo sapiens; range over the seven tumor cell lines, 72 h; read-out: IC50 values across all tested cell lines. As for the experimental part: The cytotoxicity assessment was performed against three human cancer cell lines in suspension (K562, HL-60 and MOLT-4) and four adhered (HEp-2, NCI-H292, HT-29 and MCF-7).
The cells were obtained from the Cell Bank of Rio de Janeiro and maintained in the Laboratory of Cell Culture of the Department of Antibiotics of the Federal University of Pernambuco. The lines K562 (myeloblastic leukaemia), HL-60 (promyelocytic leukemia) and MOLT-4 (lymphoblastic leukemia) were cultured in RPMI 1640 medium and the lines HEp-2 (larynx carcinoma), NCI-H292 (lung carcinoma), HT-29 (colon adenocarcinoma) and MCF-7 (breast adenocarcinoma) were cultured in DMEM medium, supplemented with 10% fetal bovine serum, 2 mM glutamine, 100 U/mL penicillin and 100 μg/mL streptomycin (Gibco™ Life Technologies), at 37 °C and 5% CO2.
The evaluation of the cytotoxicity of the compounds was performed by the method of 3-(4,5-dimethyl-2-thiazolyl)-2,5-diphenyl-2H-tetrazolium bromide (MTT) (Sigma Aldrich Co., St. Louis, MO, USA). To perform the assay the cells were seeded in 96-well plates at the following concentrations: HL-60 and K562 (0.3 × 10^6 cells/mL); MOLT-4 and PBMC (10^6 cells/mL); NCI-H292, HT-29, HEp-2 e MCF-7 (10^5 cells/mL). Briefly, the compounds previously dissolved in DMSO (dimethylsulfoxide, Vetec, São Paulo, Brazil), were diluted in medium and added to each well at the desired concentrations. For the calculation of the concentration that inhibits 50% of cell growth (IC50) the compounds were serially diluted to obtain the final concentrations between 0.19–25 μg/mL. Doxorubicin was used as the standard in the concentration range between (0.078–10 μg/mL). After 72 h of contact of the cells with the compounds, it was added to each well 25 μL of MTT solution (5 mg/mL). […] To perform the reading, 100 μL of DMSO was added in each well for the dissolution of the formazan crystals. The amount of formazan was measured by reading the plate at 560 nm absorbance. The IC50 was calculated from the nonlinear regression in the Prisma 7.0 software (GraphPad, San Diego, CA, USA). […]

A further data set relates to HL-60 cells. Briefly: Cell viability, Guava ViaCount kit, flow cytometry. The settings on record: 22 μM, 72 h. It is filed as cell-based, human. As for the experimental part:
Initially, the percentage of viable cells in apoptosis or necrosis was determined by the ViaCount assay at the Guava EasyCyte HT flow cytometer (Merck-Millipore, Hayward, CA, USA). The ViaCount kit (Merck-Millipore, Hayward, CA, USA) determines cell viability based on membrane permeability. The concentrations used in the cytometric tests were values corresponding to the IC50 and 2x IC50 of 72 h and the chosen cell line was HL-60 (promyelocytic leukemia).
HL-60 cells (3 × 10^5) were plated in 24-well plates and treated with the compounds 3c (13 and 26 μM) and 4a (11 and 22 μM) for 72 h at 37 °C with 5% CO2. In all trials, doxorubicin was used as a positive control. After the incubation period, an aliquot of 500 μL of treated and untreated cells suspension was transferred to an Eppendorf tube and centrifuged to remove the supernatant and continue the protocol of the test. In the cell viability and annexin V assays, kits were used, ViaCount kit and guava nexin kit (Guava Technologies), respectively. The protocols performed in these tests followed the manufacturer’s instructions. For to analyze mitochondrial depolarization, rhodamine 123 fluorescent dye was used. In the assay for cell cycle analysis and DNA fragmentation propidium iodide was used. […] The data were analyzed in Guava-Soft™ software version 2.7. […]
On the technique in general: Flow cytometry measures light scatter and fluorescence of single cells or particles in a stream.

In the case of `NC(=O)N/N=C/c1c(O)ccc2ccccc12` [Compound 3c, 2-Hydroxynaphthaldehyde Semicarbazone], the IC50 (usually the point on the concentration scale where inhibition reaches its midpoint) in data set [1] fell in the range of 13.1 to 56.3 µM.

As for `Cc1ccc(C=NNC(N)=O)cc1` [Compound 3g, 4-Methylbenzaldehyde Semicarbazone], the melting point (commonly the temperature, or range, at which the solid turns liquid) lay in the range of 215 to 217 °C.

As to `CCCCN(N=Cc1ccc([N+](=O)[O-])o1)C(N)=O` [Compound 4a, 5-Nitro-2-(N^2-n-butyl)furfuraldehyde Semicarbazone], in the data set on HL-60 cells, the “cells in early apoptosis (ViaCount)” value stood at 65.3%. For the same compound, in data set [1], the IC50 was in the range of 11.4 to 37.9 µM.

The record behind these values is article PMC6958387, “Biological Evaluation of Arylsemicarbazone Derivatives as Potential Anticancer Agents” (Pharmaceuticals, 2019).
